# From the kinase profiling compilation of Christmann-Franck et al. (2016)
# What was measured:
# Experiment in all cases: KINOMEscan competition binding
# Settings in all cases: compound 1.0 µM
# MAPK15 (human) = MAPK15 (human) (UniProt Q8TD08)
# CDK8 (human) = CDK8 (human) (UniProt P49336)
# PRKCH (human) = PRKCH (human) (UniProt P24723)
# [1] = system: ABL1 (human), P00519 [H396P]
# [2] = system: EGFR (human), P00533 [747-751 del / S ins]
# MAP4K2 (human) = MAP4K2 (human) (UniProt Q12851)
# CAMK4 (human) = CAMK4 (human) (UniProt Q16566)
# EPHB3 (human) = EPHB3 (human) (UniProt P54753)
# HIPK4 (human) = HIPK4 (human) (UniProt Q8NE63)
# AKT2 (human) = AKT2 (human) (UniProt P31751)
# SRPK3 (human) = SRPK3 (human) (UniProt Q9UPE1)
# MAP4K4 (human) = MAP4K4 (human) (UniProt O95819)
# MAPK8 (human) = MAPK8 (human) (UniProt P45983)
# [3] = system: MET (human), P08581 [M1250T]
# MAP3K9 (human) = MAP3K9 (human) (UniProt P80192)
# EGFR (human) = EGFR (human) (UniProt P00533)
# STK35 (human) = STK35 (human) (UniProt Q8TDR2)
# CSNK1G3 (human) = CSNK1G3 (human) (UniProt Q9Y6M4)
# FLT3 (human) = FLT3 (human) (UniProt P36888)
# TNIK (human) = TNIK (human) (UniProt Q9UKE5)
# ALK (human) = ALK (human) (UniProt Q9UM73)
# ERN1 (human) = ERN1 (human) (UniProt O75460)
# PLK3 (human) = PLK3 (human) (UniProt Q9H4B4)
# STK32C (human) = STK32C (human) (UniProt Q86UX6)
# PTK2 (human) = PTK2 (human) (UniProt Q05397)
# EPHA5 (human) = EPHA5 (human) (UniProt P54756)
# STK36 (human) = STK36 (human) (UniProt Q9NRP7)
# TNK1 (human) = TNK1 (human) (UniProt Q13470)
# FRK (human) = FRK (human) (UniProt P42685)
# BMPR1A (human) = BMPR1A (human) (UniProt P36894)
# HIPK3 (human) = HIPK3 (human) (UniProt Q9H422)
# SBK1 (human) = SBK1 (human) (UniProt Q52WX2)
# [4] = system: EGFR (human), P00533 [A750P; 747-749 del]
# EPHA7 (human) = EPHA7 (human) (UniProt Q15375)
# TIE1 (human) = TIE1 (human) (UniProt P35590)
# PRKD2 (human) = PRKD2 (human) (UniProt Q9BZL6)
# PIP5K1A (human) = PIP5K1A (human) (UniProt Q99755)
# MARK3 (human) = MARK3 (human) (UniProt P27448)
# MAP3K10 (human) = MAP3K10 (human) (UniProt Q02779)
# LCK (human) = LCK (human) (UniProt P06239)
# Sequence of FRK (human) (P42685 whole entry, looked up): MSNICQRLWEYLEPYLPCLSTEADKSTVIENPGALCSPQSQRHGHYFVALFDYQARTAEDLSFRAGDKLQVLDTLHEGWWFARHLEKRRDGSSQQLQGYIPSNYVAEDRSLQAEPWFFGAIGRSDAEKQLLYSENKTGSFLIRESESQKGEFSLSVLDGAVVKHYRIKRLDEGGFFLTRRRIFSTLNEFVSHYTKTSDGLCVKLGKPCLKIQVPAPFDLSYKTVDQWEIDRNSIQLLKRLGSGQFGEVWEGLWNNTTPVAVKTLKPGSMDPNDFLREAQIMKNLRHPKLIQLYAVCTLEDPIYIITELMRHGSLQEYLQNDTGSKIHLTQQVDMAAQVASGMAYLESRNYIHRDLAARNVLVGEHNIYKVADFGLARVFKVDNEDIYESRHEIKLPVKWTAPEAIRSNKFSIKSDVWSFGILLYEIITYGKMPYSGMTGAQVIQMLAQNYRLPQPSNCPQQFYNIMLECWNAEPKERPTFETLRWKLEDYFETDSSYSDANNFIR
# Sequence of TIE1 (human) (P35590 whole entry, looked up): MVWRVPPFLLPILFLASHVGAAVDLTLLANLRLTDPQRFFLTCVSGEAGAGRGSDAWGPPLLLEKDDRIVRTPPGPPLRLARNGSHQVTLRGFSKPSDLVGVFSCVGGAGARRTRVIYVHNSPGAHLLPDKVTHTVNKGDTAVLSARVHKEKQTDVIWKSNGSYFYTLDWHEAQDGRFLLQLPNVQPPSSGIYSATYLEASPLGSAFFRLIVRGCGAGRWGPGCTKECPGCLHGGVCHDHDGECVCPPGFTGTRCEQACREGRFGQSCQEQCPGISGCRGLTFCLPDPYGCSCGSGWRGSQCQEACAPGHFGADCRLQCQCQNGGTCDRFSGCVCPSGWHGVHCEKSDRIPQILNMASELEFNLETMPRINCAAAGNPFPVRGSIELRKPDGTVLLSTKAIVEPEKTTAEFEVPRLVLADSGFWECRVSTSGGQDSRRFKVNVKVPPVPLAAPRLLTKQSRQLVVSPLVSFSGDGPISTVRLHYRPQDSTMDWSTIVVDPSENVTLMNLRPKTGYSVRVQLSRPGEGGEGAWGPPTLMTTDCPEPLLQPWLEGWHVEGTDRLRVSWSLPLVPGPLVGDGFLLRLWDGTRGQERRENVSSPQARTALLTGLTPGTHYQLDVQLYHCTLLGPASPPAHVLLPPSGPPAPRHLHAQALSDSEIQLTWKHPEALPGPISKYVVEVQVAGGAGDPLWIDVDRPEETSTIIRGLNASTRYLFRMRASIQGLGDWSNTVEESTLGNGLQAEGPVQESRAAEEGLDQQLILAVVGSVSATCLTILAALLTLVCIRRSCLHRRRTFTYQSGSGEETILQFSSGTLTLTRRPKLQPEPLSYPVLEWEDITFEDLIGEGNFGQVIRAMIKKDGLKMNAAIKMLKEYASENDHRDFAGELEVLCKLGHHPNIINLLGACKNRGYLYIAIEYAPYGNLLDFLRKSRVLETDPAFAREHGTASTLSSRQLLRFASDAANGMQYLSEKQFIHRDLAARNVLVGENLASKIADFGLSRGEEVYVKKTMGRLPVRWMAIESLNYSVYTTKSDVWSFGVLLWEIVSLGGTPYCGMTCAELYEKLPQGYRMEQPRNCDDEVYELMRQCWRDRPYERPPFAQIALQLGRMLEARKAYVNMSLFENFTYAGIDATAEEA
# Sequence of SBK1 (human) (Q52WX2 whole entry, looked up): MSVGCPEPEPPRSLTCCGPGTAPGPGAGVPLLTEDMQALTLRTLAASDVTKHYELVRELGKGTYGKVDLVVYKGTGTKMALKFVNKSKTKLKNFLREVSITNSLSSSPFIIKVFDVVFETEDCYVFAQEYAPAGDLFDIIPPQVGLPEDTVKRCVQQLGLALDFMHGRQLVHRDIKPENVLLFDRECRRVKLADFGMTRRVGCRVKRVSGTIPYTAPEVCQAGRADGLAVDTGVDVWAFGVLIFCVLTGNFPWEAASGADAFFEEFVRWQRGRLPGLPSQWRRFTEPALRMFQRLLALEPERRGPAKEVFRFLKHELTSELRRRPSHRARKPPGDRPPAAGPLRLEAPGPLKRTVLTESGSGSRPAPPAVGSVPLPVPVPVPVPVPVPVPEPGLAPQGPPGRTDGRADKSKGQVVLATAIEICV
# Sequence of PRKD2 (human) (Q9BZL6 whole entry, looked up): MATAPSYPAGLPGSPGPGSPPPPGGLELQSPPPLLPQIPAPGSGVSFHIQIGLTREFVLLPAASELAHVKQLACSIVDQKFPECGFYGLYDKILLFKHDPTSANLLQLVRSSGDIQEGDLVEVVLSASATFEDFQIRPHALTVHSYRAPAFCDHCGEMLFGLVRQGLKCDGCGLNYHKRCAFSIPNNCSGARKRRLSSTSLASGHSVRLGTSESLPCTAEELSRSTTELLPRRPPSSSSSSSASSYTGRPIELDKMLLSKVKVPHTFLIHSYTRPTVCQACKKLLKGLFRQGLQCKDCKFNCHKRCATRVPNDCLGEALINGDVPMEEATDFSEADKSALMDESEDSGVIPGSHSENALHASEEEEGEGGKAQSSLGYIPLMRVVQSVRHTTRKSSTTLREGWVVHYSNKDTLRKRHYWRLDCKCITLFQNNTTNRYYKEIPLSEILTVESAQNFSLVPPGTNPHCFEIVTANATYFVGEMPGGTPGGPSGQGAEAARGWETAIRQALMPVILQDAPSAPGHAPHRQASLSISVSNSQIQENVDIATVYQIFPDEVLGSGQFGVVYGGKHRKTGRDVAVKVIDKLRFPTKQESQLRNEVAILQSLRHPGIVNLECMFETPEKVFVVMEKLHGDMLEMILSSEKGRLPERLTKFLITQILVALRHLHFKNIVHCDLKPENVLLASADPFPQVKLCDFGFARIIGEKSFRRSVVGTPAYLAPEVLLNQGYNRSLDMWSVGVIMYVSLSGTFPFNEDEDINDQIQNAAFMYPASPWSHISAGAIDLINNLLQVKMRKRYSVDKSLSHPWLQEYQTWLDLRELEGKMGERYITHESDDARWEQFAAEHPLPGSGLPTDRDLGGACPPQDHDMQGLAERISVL
# Sequence of STK36 (human) (Q9NRP7 whole entry, looked up): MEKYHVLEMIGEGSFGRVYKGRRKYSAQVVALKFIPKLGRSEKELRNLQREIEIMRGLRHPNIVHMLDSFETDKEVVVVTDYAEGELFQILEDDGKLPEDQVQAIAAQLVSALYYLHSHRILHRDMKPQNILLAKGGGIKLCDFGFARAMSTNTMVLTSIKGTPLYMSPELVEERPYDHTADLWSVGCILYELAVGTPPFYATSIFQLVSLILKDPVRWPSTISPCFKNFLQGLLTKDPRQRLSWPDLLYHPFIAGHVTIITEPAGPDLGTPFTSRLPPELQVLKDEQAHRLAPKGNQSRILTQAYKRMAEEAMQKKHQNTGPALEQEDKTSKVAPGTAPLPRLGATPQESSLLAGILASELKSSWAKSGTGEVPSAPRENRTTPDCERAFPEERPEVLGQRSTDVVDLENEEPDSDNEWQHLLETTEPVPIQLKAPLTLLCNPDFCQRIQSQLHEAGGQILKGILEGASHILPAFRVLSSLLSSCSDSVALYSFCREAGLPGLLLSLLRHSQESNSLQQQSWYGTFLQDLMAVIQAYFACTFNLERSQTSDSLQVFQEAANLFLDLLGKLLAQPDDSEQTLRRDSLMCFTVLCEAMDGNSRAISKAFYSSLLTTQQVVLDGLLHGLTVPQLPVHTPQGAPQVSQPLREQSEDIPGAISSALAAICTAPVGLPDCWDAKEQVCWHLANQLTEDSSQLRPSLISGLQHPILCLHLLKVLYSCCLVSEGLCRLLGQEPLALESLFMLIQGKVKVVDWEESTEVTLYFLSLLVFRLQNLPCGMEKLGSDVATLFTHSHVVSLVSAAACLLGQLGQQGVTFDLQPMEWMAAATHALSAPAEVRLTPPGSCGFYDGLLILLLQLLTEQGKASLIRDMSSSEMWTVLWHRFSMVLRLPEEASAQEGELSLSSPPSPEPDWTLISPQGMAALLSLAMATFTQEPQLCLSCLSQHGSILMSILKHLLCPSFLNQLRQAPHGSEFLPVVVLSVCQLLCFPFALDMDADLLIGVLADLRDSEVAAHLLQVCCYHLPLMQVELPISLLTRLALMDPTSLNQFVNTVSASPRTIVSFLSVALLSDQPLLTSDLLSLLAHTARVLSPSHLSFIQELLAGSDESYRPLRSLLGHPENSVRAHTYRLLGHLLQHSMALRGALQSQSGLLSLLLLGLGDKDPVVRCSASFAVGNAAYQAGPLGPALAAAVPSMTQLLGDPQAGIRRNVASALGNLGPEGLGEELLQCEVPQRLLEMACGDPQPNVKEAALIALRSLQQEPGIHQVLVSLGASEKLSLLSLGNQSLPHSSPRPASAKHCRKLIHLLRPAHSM
# Sequence of SRPK3 (human) (Q9UPE1 whole entry, looked up): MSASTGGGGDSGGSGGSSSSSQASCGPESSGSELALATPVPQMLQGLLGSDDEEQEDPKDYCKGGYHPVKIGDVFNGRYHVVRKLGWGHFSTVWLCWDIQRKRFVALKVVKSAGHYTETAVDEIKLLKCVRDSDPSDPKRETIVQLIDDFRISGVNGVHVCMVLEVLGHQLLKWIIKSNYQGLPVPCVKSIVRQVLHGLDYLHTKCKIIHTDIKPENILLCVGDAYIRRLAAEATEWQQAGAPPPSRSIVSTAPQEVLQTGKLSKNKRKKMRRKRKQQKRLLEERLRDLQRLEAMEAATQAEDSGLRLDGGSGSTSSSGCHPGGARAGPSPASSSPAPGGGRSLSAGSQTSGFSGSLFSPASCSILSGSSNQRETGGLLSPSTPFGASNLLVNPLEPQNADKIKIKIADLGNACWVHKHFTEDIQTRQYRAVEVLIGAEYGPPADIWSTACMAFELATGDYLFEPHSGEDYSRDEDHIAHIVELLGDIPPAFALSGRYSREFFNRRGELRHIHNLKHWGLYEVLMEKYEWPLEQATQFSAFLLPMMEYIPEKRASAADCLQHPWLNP
compound,measurement,setting,value
Nc1cc(C(F)(F)F)c(-c2cc(N3CCOCC3)nc(N3CCOCC3)n2)cn1,inhibition of binding,MAPK15 (human),2%
same,inhibition of binding,CDK8 (human),0%
same,inhibition of binding,PRKCH (human),0%
same,inhibition of binding,[1],0%
same,inhibition of binding,[2],4%
same,inhibition of binding,MAP4K2 (human),17%
same,inhibition of binding,CAMK4 (human),50%
same,inhibition of binding,EPHB3 (human),4%
same,inhibition of binding,HIPK4 (human),21%
same,inhibition of binding,AKT2 (human),0%
same,inhibition of binding,SRPK3 (human),0%
same,inhibition of binding,MAP4K4 (human),9%
same,inhibition of binding,MAPK8 (human),0%
same,inhibition of binding,[3],20%
same,inhibition of binding,MAP3K9 (human),18%
same,inhibition of binding,EGFR (human),10%
same,inhibition of binding,STK35 (human),0%
same,inhibition of binding,CSNK1G3 (human),20%
same,inhibition of binding,FLT3 (human),8%
same,inhibition of binding,TNIK (human),1%
same,inhibition of binding,ALK (human),6%
same,inhibition of binding,ERN1 (human),5%
same,inhibition of binding,PLK3 (human),0%
same,inhibition of binding,STK32C (human),0%
same,inhibition of binding,PTK2 (human),21%
same,inhibition of binding,EPHA5 (human),0%
same,inhibition of binding,STK36 (human),0%
same,inhibition of binding,TNK1 (human),10%
same,inhibition of binding,FRK (human),0%
same,inhibition of binding,BMPR1A (human),0%
same,inhibition of binding,HIPK3 (human),0%
same,inhibition of binding,SBK1 (human),17%
same,inhibition of binding,[4],0%
same,inhibition of binding,EPHA7 (human),0%
same,inhibition of binding,TIE1 (human),0%
same,inhibition of binding,PRKD2 (human),38%
same,inhibition of binding,PIP5K1A (human),0%
same,inhibition of binding,MARK3 (human),0%
same,inhibition of binding,MAP3K10 (human),0%
same,inhibition of binding,LCK (human),0%
